Laboratory results taken from patent publication EP4335840A1, “NEW CONTRAST AGENTS FOR USE IN DIAGNOSTIC IMAGING” (priority 2022, dated 2024).

These substances were tested against T1, OATP1B1 (Homo sapiens, UniProt Q9Y6L6) (assay: Uptake into stable transfected OATP1B1 HEK 293 cells). Settings: 100 µM, 40 min, relative to RC1 (Gd-EOB-DTPA).
T1 sequence (Q9Y6L6 1-691): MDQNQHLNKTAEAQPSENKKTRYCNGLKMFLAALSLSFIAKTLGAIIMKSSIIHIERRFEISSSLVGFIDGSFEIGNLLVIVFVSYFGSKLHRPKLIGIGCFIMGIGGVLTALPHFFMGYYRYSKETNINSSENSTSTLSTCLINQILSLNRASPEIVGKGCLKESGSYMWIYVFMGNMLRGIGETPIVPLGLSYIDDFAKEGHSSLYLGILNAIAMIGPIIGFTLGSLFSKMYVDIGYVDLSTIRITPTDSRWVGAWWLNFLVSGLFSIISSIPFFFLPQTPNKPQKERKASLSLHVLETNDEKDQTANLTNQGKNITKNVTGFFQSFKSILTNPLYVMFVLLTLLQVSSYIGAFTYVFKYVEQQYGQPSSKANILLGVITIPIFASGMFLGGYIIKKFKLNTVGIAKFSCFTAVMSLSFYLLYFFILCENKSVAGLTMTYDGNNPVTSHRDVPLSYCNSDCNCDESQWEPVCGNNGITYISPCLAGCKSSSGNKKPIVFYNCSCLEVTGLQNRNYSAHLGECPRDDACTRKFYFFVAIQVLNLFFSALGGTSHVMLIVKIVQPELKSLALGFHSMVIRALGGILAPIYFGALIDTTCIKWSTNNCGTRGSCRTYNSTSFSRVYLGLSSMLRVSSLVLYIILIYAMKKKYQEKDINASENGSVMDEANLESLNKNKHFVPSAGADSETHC
Assay type: cell-based
Procedure: Human stable transfected OATP1B1 human embryonic kidney 293 cells (OATP1B1 HEK 293, SLCO1B1, Entrez Gene ID: 10599) were used (Leonhardt M et al. Drug Metab Dispos. 2010 Jul;38(7):1024-8). The following culture medium was used: 500 mL DMEM (Dulbecco's Modified Eagle Medium - high Glucose, D6429), 50 mL FCS (fetal bovine serum, Fa. Sigma, F7524), 5.8 mL G418 (Geneticin, Fa. Gibco 10131-027) and 5 mL Pen-Strep. (Penicillin-Streptomycin, Fa. Gibco, Ref 15140-122). Cryopreserved cells were shortly thawed in water bath and diluted in 10 mL warm culture medium (37°C). After medium change the cells were grown for 3d in a 25 cm^2 cell culture flask. After 3 to 5d the cells were transferred into 75 cm^2 flasks. For the splitting the cells were incubated with 1.5 mL trypsin (Trypsin-EDTA (1x) 0,05%, Ref 25300-054 100ml, Fa. Gibco) for 3-5min in the incubator (37°C, 5% CO2 and […]). After centrifugation and washing with medium the cells were counted (50 µL cell suspension and 50 µL trypan blue (Trypan Blue Solution, 93595-50ml, Fa. Fluka). Cells were cultured (1×10^5 cells/well) in poly-D-lysine coated 24-well plates (Fa. Corning, Ref: 354414) in 1.5 mL medium per well. After 48h in the incubator the medium was changed and 1.5 mL/well sodium butyrate containing medium were added (40 mL culture medium plus 400 µL Na-Butyrate, Fa. Sigma Aldrich B5887-5G, 250 mg in 2.27 mL MilliQ water). After 24h in the incubator the medium was vacuumed off and 1.5 mL transport buffer was added and incubated for 10min. The transport buffer contains the following ingredients: 500 mL HBSS (Hank's balanced salt solution, Hyclone, SH30268.01), 5 mL HEPES buffer (4-(2-hydroxyethyl)-1-piperazineethanesulfonic acid, Gibco 15630-056) and 3.9 mL glucose (Sigma, G8270-100, 90 g/200mL MilliQ water). All test items were prepared in transport buffer at a final concentration of 100 µM from stock solutions (180 to 500 mM concentration). The OATP1B1 HEK 293 cells were incubated with test solutions (test item in transport buffer 500 µL) for 40min on a thermoshaker without shaking (PHMP, Fa. Grant Bio). Triplicates were performed for each test item. After incubation the cells were washed with 2 mL of cold PBS (+) buffer (Dulbeccos PBS +, Fa. Gibco). […] As a reference standard Gd-EOB-DTPA (gadoxetate) is used in the same well plate. The OATP1B1 HEK 293 uptake of the test compound is calculated relative to gadoxetate (resulting in the unit % of RC1).
“Gadolinium-2,2',2"-[10-(carboxymethyl)-2-(4-ethoxybenzyl)-1,4,7,10-tetraazacyclododecane-1,4,7-triyl]triacetate [Example 9]” was tested, and the “Uptake into OATP1B1-HEK 293 cells” value was 60 % of RC1.
For “Gadolinium-2,2',2"-[(2S)-2-(4-butoxybenzyl)-10-(carboxymethyl)-1,4,7,10-tetraaza cyclododecane-1,4,7-triyl]triacetate [Example 13]”, the “Uptake into OATP1B1-HEK 293 cells” value was 847 % of RC1.
For “Gadolinium-2,2',2"-[(2S)-10-(carboxymethyl)-2-(4-ethoxybenzyl)-1,4,7,10-tetraazacyclododecane-1,4,7-triyl]triacetate [Example 11]”, the “Uptake into OATP1B1-HEK 293 cells” value was 96 % of RC1.
For “Gadolinium-2,2',2"-[(2S)-10-(carboxymethyl)-2-(4-ethoxybenzyl)-1,4,7,10-tetraazacyclododecane-1,4,7-triyl]triacetate [Example 10]”, the “Uptake into OATP1B1-HEK 293 cells” value was 212 % of RC1.
In the case of “Gadolinium-2,2',2"-[(2S)-2-(4-butoxybenzyl)-10-(carboxymethyl)-1,4,7,10-tetraaza cyclododecane-1,4,7-triyl]triacetate [Example 12]”, the “Uptake into OATP1B1-HEK 293 cells” value is reported as 119 % of RC1.
With “Gadolinium-2,2',2"-[10-(carboxymethyl)-2-(4-ethoxybenzyl)-1,4,7,10-tetraazacyclododecane-1,4,7-triyl]triacetate [Example 8]” the “Uptake into OATP1B1-HEK 293 cells” value was 208 % of RC1.

What follows are substances tested against T1, OATP1B1 in the same assay as above. Settings: OATP1B1-HEK 293 cell uptake with Rifampicine.
Assay type: cell-based
With “Gadolinium-2,2',2"-[10-(carboxymethyl)-2-(4-ethoxybenzyl)-1,4,7,10-tetraazacyclododecane-1,4,7-triyl]triacetate [Example 9]” the “Inhibition Rifampicine” value was 23 % inhibition.
“Gadolinium-2,2',2"-[(2S)-2-(4-butoxybenzyl)-10-(carboxymethyl)-1,4,7,10-tetraaza cyclododecane-1,4,7-triyl]triacetate [Example 13]” was tested, and the “Inhibition Rifampicine” value was 88 % inhibition.
“Gadolinium-2,2',2"-[(2S)-10-(carboxymethyl)-2-(4-ethoxybenzyl)-1,4,7,10-tetraazacyclododecane-1,4,7-triyl]triacetate [Example 11]” was tested, and the “Inhibition Rifampicine” value was 64 % inhibition.
In the case of “Gadolinium-2,2',2"-[(2S)-10-(carboxymethyl)-2-(4-ethoxybenzyl)-1,4,7,10-tetraazacyclododecane-1,4,7-triyl]triacetate [Example 10]”, the “Inhibition Rifampicine” value is reported as 73 % inhibition.
For “Gadolinium-2,2',2"-[(2S)-2-(4-butoxybenzyl)-10-(carboxymethyl)-1,4,7,10-tetraaza cyclododecane-1,4,7-triyl]triacetate [Example 12]”, the “Inhibition Rifampicine” value was 81 % inhibition.
For “Gadolinium-2,2',2"-[10-(carboxymethyl)-2-(4-ethoxybenzyl)-1,4,7,10-tetraazacyclododecane-1,4,7-triyl]triacetate [Example 8]”, the “Inhibition Rifampicine” value was 75 % inhibition.
